Results published in PMC7531004, “Discovery of gramicidin A analogues with altered activities by multidimensional screening of a one-bead-one-compound library” (Nature Communications, 2020).
Where a SMILES comes first, the peptide text is derived from it. [ ]: non-standard residue; d: D form. The star is where a group is joined. NHCH2CH2OH = OCCN*; For = O=C*

What was measured:
[1] = H+/Na+ transport assay of bead-derived peptides (one-point); type: biochemical; set-up: key: relative activity; mean of two control wells = 1.00; conditions: bead-derived peptide solution, EYPC/EYPG LUVs;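 also: relative to parent gramicidin A activity set to 1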
Method in brief: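 Values are normalized fluorescence, with Triton X-100 defining 100% and untreated LUVs 0%, and the two control wells averaging 1.00. Vesicles carried 1.0 mM pyranine and included egg yolk phosphatidylglycerol. Peptides were incubated with them 30 min at room temperature.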

[2] = test system: P388 mouse leukemia cells; conditions: 92 h
Method in brief: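 Peptide stocks diluted 250× in growth medium; P388 cells 1 × 10^4 cells/mL final; 37 °C, 5% CO2, 92 h. WST-1 + 1-methoxy PMS, 4 h, A415. Output: % viability.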

[3] = test system: Streptococcus pyogenes SSI-9; test: Antibacterial activity assay of bead-derived peptides (three concentrations); type: cell-based; set-up: key: +++: inhibition by the 640-fold diluted peptide solution; ++: inhibition by the 160-fold diluted solution; +: inhibition by the 40-fold diluted solution; -: no inhibition; conditions: S. pyogenes, bead-derived peptide solution, three concentrations
Method in brief: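 First, each peptide stock was diluted 4- and 16-fold in DMSO; next, the three solutions were mixed with S. pyogenes SSI-9 suspension (2 × 10^5 CFU) in cation-adjusted Mueller Hinton Broth plus 5% laked horse blood; finally, plates stood 18 h at 37 °C before checking for grown-cell precipitation.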

| Compound | H+/Na+ transport activity normalized against the value of 1 (1.00) [1] | cell viability/% [2] | antibacterial activity [3] |
| --- | --- | --- | --- |
| CC(C)C[C@@H](NC(=O)[C@H](C)NC(=O)[C@H](NC(=O)[C@H](C)NC(=O)CNC(=O)[C@@H](NC=O)C(C)C)[C@H](C)O)C(=O)N[C@H](C(=O)N[C@H](CC(C)C)C(=O)N[C@@H](Cc1c[nH]c2ccccc12)C(=O)N[C@@H](C(=O)N[C@@H](Cc1c[nH]c2ccccc12)C(=O)N[C@@H](C(=O)N[C@@H](Cc1c[nH]c2ccccc12)C(=O)N[C@H](CC(C)C)C(=O)N[C@@H](Cc1c[nH]c2ccccc12)C(=O)NCCO)C(C)C)C(C)C)C(C)C [compound 9145] (For-VGA[dT]A[dL]V[dL]W[dV]W[dV]W[dL]W-NHCH2CH2OH) | 1.03 | 70.9% | - |
| CNC(=O)C[C@@H](NC(=O)[C@@H](NC(=O)[C@H](NC(=O)[C@H](C)NC(=O)[C@H](NC(=O)[C@H](C)NC(=O)CNC(=O)[C@@H](NC=O)C(C)C)C(C)C)C(C)C)C(C)C)C(=O)N[C@@H](Cc1c[nH]c2ccccc12)C(=O)N[C@H](CC(C)C)C(=O)N[C@@H](Cc1c[nH]c2ccccc12)C(=O)N[C@H](CC(C)C)C(=O)N[C@@H](Cc1c[nH]c2ccccc12)C(=O)N[C@@H](C(=O)N[C@@H](Cc1c[nH]c2ccccc12)C(=O)NCCO)C(C)C [compound 6899] (For-VGA[dV]A[dV]V[dD](NHMe)W[dL]W[dL]W[dV]W-NHCH2CH2OH) | 1.12 | 100.0% | - |
| CNC(=O)C[C@@H](NC(=O)[C@@H](NC(=O)[C@@H](CC(C)C)NC(=O)[C@H](C)NC(=O)[C@@H](CC(C)C)NC(=O)[C@H](C)NC(=O)CNC(=O)[C@@H](NC=O)C(C)C)C(C)C)C(=O)N[C@@H](Cc1c[nH]c2ccccc12)C(=O)N[C@@H](C(=O)N[C@@H](Cc1c[nH]c2ccccc12)C(=O)N[C@@H](C(=O)N[C@@H](Cc1c[nH]c2ccccc12)C(=O)N[C@H](CC(C)C)C(=O)N[C@@H](Cc1c[nH]c2ccccc12)C(=O)NCCO)C(C)C)C(C)C [compound 11228] (For-VGA[dL]A[dL]V[dD](NHMe)W[dV]W[dV]W[dL]W-NHCH2CH2OH) | 1.27 | 76.4% | - |
| CC(C)C[C@@H](NC(=O)[C@H](Cc1c[nH]c2ccccc12)NC(=O)[C@@H](CC(C)C)NC(=O)[C@@H](NC(=O)[C@H](NC(=O)[C@H](C)NC(=O)[C@H](NC(=O)[C@H](C)NC(=O)CNC(=O)[C@@H](NC=O)C(C)C)[C@H](C)O)C(C)C)C(C)C)C(=O)N[C@@H](Cc1c[nH]c2ccccc12)C(=O)N[C@H](CC(C)C)C(=O)N[C@@H](Cc1c[nH]c2ccccc12)C(=O)N[C@@H](C(=O)N[C@@H](Cc1c[nH]c2ccccc12)C(=O)NCCO)C(C)C [compound 11317] (For-VGA[dT]A[dV]V[dL]W[dL]W[dL]W[dV]W-NHCH2CH2OH) | 1.02 | 42.1% | - |
| CC(C)C[C@@H](NC(=O)[C@H](Cc1c[nH]c2ccccc12)NC(=O)[C@H](NC(=O)[C@H](Cc1c[nH]c2ccccc12)NC(=O)[C@@H](CC(C)C)NC(=O)[C@H](Cc1c[nH]c2ccccc12)NC(=O)[C@@H](CC(C)C)NC(=O)[C@@H](NC(=O)[C@H](NC(=O)[C@H](C)NC(=O)[C@H](NC(=O)[C@H](C)NC(=O)CNC(=O)[C@@H](NC=O)C(C)C)C(C)C)C(C)C)C(C)C)[C@H](C)O)C(=O)N[C@@H](Cc1c[nH]c2ccccc12)C(=O)NCCO [compound 1251] (For-VGA[dV]A[dV]V[dL]W[dL]W[dT]W[dL]W-NHCH2CH2OH) | 1.00 | 52.9% | + |
| CC(C)C[C@@H](NC(=O)[C@H](C)NC(=O)CNC(=O)[C@@H](NC=O)C(C)C)C(=O)N[C@@H](C)C(=O)N[C@@H](C(=O)N[C@H](C(=O)N[C@@H](C(=O)N[C@@H](Cc1c[nH]c2ccccc12)C(=O)N[C@@H](C(=O)N[C@@H](Cc1c[nH]c2ccccc12)C(=O)N[C@@H](C(=O)N[C@@H](Cc1c[nH]c2ccccc12)C(=O)N[C@@H](C(=O)N[C@@H](Cc1c[nH]c2ccccc12)C(=O)NCCO)C(C)C)C(C)C)C(C)C)C(C)C)C(C)C)C(C)C [compound 12092] (For-VGA[dL]A[dV]V[dV]W[dV]W[dV]W[dV]W-NHCH2CH2OH) | 1.14 | 100.0% | + |
| CC(C)C[C@@H](NC(=O)[C@H](C)NC(=O)CNC(=O)[C@@H](NC=O)C(C)C)C(=O)N[C@@H](C)C(=O)N[C@@H](C(=O)N[C@H](C(=O)N[C@@H](C(=O)N[C@@H](Cc1c[nH]c2ccccc12)C(=O)N[C@@H](C(=O)N[C@@H](Cc1c[nH]c2ccccc12)C(=O)N[C@H](CC(C)C)C(=O)N[C@@H](Cc1c[nH]c2ccccc12)C(=O)N[C@@H](C(=O)N[C@@H](Cc1c[nH]c2ccccc12)C(=O)NCCO)C(C)C)C(C)C)[C@H](C)O)C(C)C)C(C)C [compound 4427] (For-VGA[dL]A[dV]V[dT]W[dV]W[dL]W[dV]W-NHCH2CH2OH) | 1.18 | 100.0% | - |
| CC(C)C[C@@H](NC(=O)[C@H](C)NC(=O)[C@H](NC(=O)[C@H](C)NC(=O)CNC(=O)[C@@H](NC=O)C(C)C)C(C)C)C(=O)N[C@H](C(=O)N[C@@H](C(=O)N[C@@H](Cc1c[nH]c2ccccc12)C(=O)N[C@@H](C(=O)N[C@@H](Cc1c[nH]c2ccccc12)C(=O)N[C@H](CC(C)C)C(=O)N[C@@H](Cc1c[nH]c2ccccc12)C(=O)N[C@H](CC(C)C)C(=O)N[C@@H](Cc1c[nH]c2ccccc12)C(=O)NCCO)C(C)C)[C@H](C)O)C(C)C [compound 7840] (For-VGA[dV]A[dL]V[dT]W[dV]W[dL]W[dL]W-NHCH2CH2OH) | 1.12 | 100.0% | - |
| CC(C)C[C@@H](NC(=O)[C@H](C)NC(=O)CNC(=O)[C@@H](NC=O)C(C)C)C(=O)N[C@@H](C)C(=O)N[C@H](CC(C)C)C(=O)N[C@H](C(=O)N[C@@H](C(=O)N[C@@H](Cc1c[nH]c2ccccc12)C(=O)N[C@@H](C(=O)N[C@@H](Cc1c[nH]c2ccccc12)C(=O)N[C@H](CC(C)C)C(=O)N[C@@H](Cc1c[nH]c2ccccc12)C(=O)N[C@H](CC(C)C)C(=O)N[C@@H](Cc1c[nH]c2ccccc12)C(=O)NCCO)C(C)C)[C@H](C)O)C(C)C [compound 2158] (For-VGA[dL]A[dL]V[dT]W[dV]W[dL]W[dL]W-NHCH2CH2OH) | 1.18 | 100.0% | - |
| CC(C)C[C@@H](NC(=O)[C@H](C)NC(=O)[C@H](NC(=O)[C@H](C)NC(=O)CNC(=O)[C@@H](NC=O)C(C)C)C(C)C)C(=O)N[C@H](C(=O)N[C@@H](C(=O)N[C@@H](Cc1c[nH]c2ccccc12)C(=O)N[C@H](CC(C)C)C(=O)N[C@@H](Cc1c[nH]c2ccccc12)C(=O)N[C@@H](C(=O)N[C@@H](Cc1c[nH]c2ccccc12)C(=O)N[C@H](CC(C)C)C(=O)N[C@@H](Cc1c[nH]c2ccccc12)C(=O)NCCO)[C@H](C)O)C(C)C)C(C)C [compound 11374] (For-VGA[dV]A[dL]V[dV]W[dL]W[dT]W[dL]W-NHCH2CH2OH) | 1.07 | 45.1% | + |
| CC(C)C[C@@H](NC(=O)[C@H](C)NC(=O)CNC(=O)[C@@H](NC=O)C(C)C)C(=O)N[C@@H](C)C(=O)N[C@@H](C(=O)N[C@H](C(=O)N[C@H](CC(C)C)C(=O)N[C@@H](Cc1c[nH]c2ccccc12)C(=O)N[C@H](CC(C)C)C(=O)N[C@@H](Cc1c[nH]c2ccccc12)C(=O)N[C@@H](C(=O)N[C@@H](Cc1c[nH]c2ccccc12)C(=O)N[C@H](CC(C)C)C(=O)N[C@@H](Cc1c[nH]c2ccccc12)C(=O)NCCO)[C@H](C)O)C(C)C)C(C)C [compound 11425] (For-VGA[dL]A[dV]V[dL]W[dL]W[dT]W[dL]W-NHCH2CH2OH) | 1.12 | 41.5% | + |
| CC(C)C[C@@H](NC(=O)[C@H](C)NC(=O)CNC(=O)[C@@H](NC=O)C(C)C)C(=O)N[C@@H](C)C(=O)N[C@H](CC(C)C)C(=O)N[C@H](C(=O)N[C@H](CC(C)C)C(=O)N[C@@H](Cc1c[nH]c2ccccc12)C(=O)N[C@H](CC(C)C)C(=O)N[C@@H](Cc1c[nH]c2ccccc12)C(=O)N[C@@H](C(=O)N[C@@H](Cc1c[nH]c2ccccc12)C(=O)N[C@@H](C(=O)N[C@@H](Cc1c[nH]c2ccccc12)C(=O)NCCO)C(C)C)C(C)C)C(C)C [compound 4313] (For-VGA[dL]A[dL]V[dL]W[dL]W[dV]W[dV]W-NHCH2CH2OH) | 1.21 | 3.2% | + |
| CC(C)C[C@@H](NC(=O)[C@H](C)NC(=O)[C@H](NC(=O)[C@H](C)NC(=O)CNC(=O)[C@@H](NC=O)C(C)C)C(C)C)C(=O)N[C@H](C(=O)N[C@@H](C(=O)N[C@@H](Cc1c[nH]c2ccccc12)C(=O)N[C@H](CC(C)C)C(=O)N[C@@H](Cc1c[nH]c2ccccc12)C(=O)N[C@H](CC(C)C)C(=O)N[C@@H](Cc1c[nH]c2ccccc12)C(=O)N[C@H](CC(C)C)C(=O)N[C@@H](Cc1c[nH]c2ccccc12)C(=O)NCCO)C(C)C)C(C)C [compound 10593] (For-VGA[dV]A[dL]V[dV]W[dL]W[dL]W[dL]W-NHCH2CH2OH) | 1.10 | 38.5% | + |
